From patent publication US5760036A, “Aminediol protease inhibitors” (E. R. Squibb & Sons, Inc., priority 1995, dated 1998)

Target: T1, HIV protease (Human immunodeficiency virus type 1 group M subtype B, UniProt P04585)
T1 construct: and purified protease
Experiment: HIV Protease Assay
Type: biochemical
Conditions: 10 μM inhibitor, 4% DMSO, 450 μM substrate, pH 5.5, 30 minutes at 37° C., RP-HPLC
How it was run: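 Purified protease cleaved 450 μM octapeptide substrate in 50 mM sodium acetate pH 5.5 with 100 μg/ml BSA for 30 minutes at 37° C; product analyzed by reverse-phase HPLC at UV220 after H3PO4 quench. Inhibitors tested at final 10 μM with 4% DMSO.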

| HIV Protease % Inhibition at 10 μM [%] | SMILES |
| --- | --- |
| 65 | CC(C)(C)OC(=O)N[C@@H](Cc1ccccc1)[C@H](O)CNC[C@@H](O)[C@H](Cc1ccccc1)NC(=O)C(CCO)C(C)(C)C (single isomer, unassigned; isomer b) [Compound 313, [1S-[1R*, 2S* (2S*, 3R*)][-[3-[[3-[[2-(1,1-Dimethylethyl)-4-hydroxy-1-oxobutyl]amino]-2-hydroxy-4-phenylbutyl]amino]-2-hydroxy-1-(phenylmethyl)propyl]carbamic acid, 1,1-dimethylethyl ester, isomer B] |
| 50 | CC(C)(C)OC(=O)N[C@@H](Cc1ccccc1)[C@H](O)CNC[C@@H](O)[C@H](Cc1ccccc1)NC(=O)C(O)(CO)C(C)(C)C (single isomer, unassigned; isomer b) [Compound 367, [1S-[1R*,2S*(2S*,3R*)]]-[3-[[3-[[2-Hydroxy-2-(hydroxymethyl)-3.3-dimethyl-l-oxobutyl]amino]-2-hydroxy-4-phenylbutyl]amino]-2-hydroxy-1-(phenylmethyl)propyl]carbamic acid. 1.1-dimethylethyl ester, isomer B] |

The next lines start with the compound.

| SMILES | HIV Protease % Inhibition at 10 μM [%] |
| --- | --- |
| CC(C)(C)OC(=O)N[C@@H](Cc1ccccc1)[C@H](O)CNC[C@@H](O)[C@H](Cc1ccccc1)NC(=O)C1(O)COCC1(C)C (single isomer, unassigned; isomer b) [Compound 365, [1S-[1R*,2S*(2S*,3R*)]]-[2-Hydroxy-3-[[tetrahydro-3-hydroxy-4,4-dimethyl-3-furanyl)carbonyl]amino]-4-phenylbutyl]amino]-l-(phenylmethyl)-propyl]carbamic acid, 1,1-dimethylethyl ester, Isomer B] | 72 |
| CC(C)(C)OC(=O)N[C@@H](Cc1ccccc1)[C@H](O)CNC[C@@H](O)[C@H](Cc1ccccc1)NC(=O)C(C)(O)c1ccccn1 (single isomer, unassigned; isomer a) [Compound 381, [1S-[1R*,2S*(2S*, 3R*)]]-[2-Hydroxy-3-[[2-hydroxy-3-[[2-hydroxy-1-oxo-2-(2-pyridinyl)propyl]amino]-4-phenylbutyl]amino]-1-(phenylmethyl)propyl]carbamic acid, 1.1-dimethylethyl ester, isomer A] | 60 |
| CC(C)(C)OC(=O)N[C@@H](Cc1ccccc1)[C@H](O)CNC[C@@H](O)[C@H](Cc1ccccc1)NC(=O)C1NC(=O)OC1(C)C (single isomer, unassigned; isomer a) [Compound 239, [1S-[1R*,2S*(2S*,3R*)]]-[3-[[3-[[(5,5-Dimethyl-2-oxo-4-oxazolidinyl)carbonyl]amino]-2-hydroxy-4-phenylbutyl]amino]-2-hydroxy-1-(phenylmethyl)propyl]carbamic acid, 1,1-dimethylethyl ester, isomer A] | 37 |

Same assay, conditions: pH 5.5, 10 μM inhibitor, 4% DMSO, 450 μM substrate, pH 5.5, 30 minutes at 37° C., RP-HPLC; read-out: HIV Protease % Inhibition at 10 μM

| inhibition at 10 µM [%] | SMILES |
| --- | --- |
| 13 | CC(C)(C)OC(=O)NCC(O)(CNC[C@@H](O)[C@H](Cc1ccccc1)NC(=O)OC(C)(C)C)Cc1ccccc1 (stereo partly drawn) [Compound 191, [1S-(1R*,2S*)]-[3-[[3-[[(1,1-Dimethylethoxy)carbonyl]amino]-2-hydroxy-2-(phenylmethyl)propyl]amino]-2-hydroxy-1-(phenylmethyl)propyl]carbamic acid, 1,1-dimethyl-ethyl ester] |
| 19 | CC(C)(C)OC(=O)N[C@@H](Cc1ccccc1)[C@@H](O)CNCC(O)[C@@H](Cc1ccccc1)NC(=O)OC(C)(C)C (stereo partly drawn) [Compound 27, [1S-[1R*,2R*(3S*)]]-[3-[[3-[[(1,1-Dimethylethoxy)carbonyl]amino]-2-hydroxy-4-phenylbutyl]amino]-2-hydroxy-1-(phenylmethyl)propyl]-carbamic acid 1,1-dimethylethyl ester] |
| 41 | CC(C)(C)OC(=O)N[C@@H](Cc1ccccc1)[C@H](O)CNC[C@H](O)[C@@H](Cc1ccccc1)NC(=O)OC(C)(C)C [Compound 26ii, [1R-[1R*,2S*(2R*,3S*)]]-3-[[3-[[(1,1-Dimethylethoxy)carbonyl]amino]-2-hydroxy-4-phenylbutyl]amino]-2-hydroxy-1-(phenylmethyl)-propyl]carbamic acid, 1,1-dimethylethyl ester] |
| 98 | CC(C)(C)OC(=O)N[C@@H](Cc1ccccc1)[C@H](O)CNC[C@@H](O)[C@H](Cc1ccccc1)NC(=O)OC(C)(CO)CO [Compound 251, [R-(R*,S*)]-[Iminobis[2-hydroxy-1-(phenylmethyl)-3,1-propanediyl)]biscarbamic acid, 1,1-bis(hydroxymethyl)ethyl 1,1-dimethylethyl ester] |
| 41 | CC(C)(C)OC(=O)N[C@@H](Cc1ccccc1)[C@H](O)CNC[C@@H](O)[C@H](Cc1ccccc1)N[S+]([O-])C(C)(C)C (stereo partly drawn) [Compound 182, [1S-[1R*,2S*(2S*,3R*)]]-[3-[[(1,1-Dimethylethyl)-sulfinyl]amino-2-hydroxy-4-phenylbutyl]amino]2-hydroxy-1-(phenylmethyl)propyl]carbamic acid, 1,1-dimethylethyl ester] |
| 54 | CC(C)(C)OC(=O)N[C@@H](Cc1ccccc1)[C@H](O)CNC[C@@H](O)[C@H](Cc1ccccc1)NC(=O)C(C)(C)CO [Compound 279, [1S-[1R*,2S*(2S*,3R*)]]-[2-Hydroxy-3-[[2-hydroxy-3-[[2-(hydroxymethyl)-2-methyl-1-oxopropyl]amino]-4-phenylbutyl]amino]-1-(phenylmethyl)propyl]carbamic acid, 1,1-dimethylethyl ester] |

More lines, now with the values behind:

| SMILES | inhibition at 10 µM [%] |
| --- | --- |
| CC(C)(C)OC(=O)N1Cc2ccccc2C[C@H]1[C@@H](O)CNC[C@H](O)[C@@H]1Cc2ccccc2CN1C(=O)OC(C)(C)C [Compound 10, [S-(R*,R*)]-3,3'-[Iminobis(1-hydroxy-2,1-ethanediyl)]-bis[2(1H)-iso-quinolinecarboxylic acid], bis(1,1-dimethylethyl) ester] | 1 |
| CC(C)(C)OC(=O)N[C@@H](Cc1ccccc1)[C@H](O)CNC[C@@H](O)[C@H](Cc1ccccc1)NC(=O)[C@@H](O)c1ccccc1 [Compound 378, [1S-[1R*,2S*[2S*, 3R*(R*)]]]-[3-[[3-[2-Hydroxy-1-oxo-2-phenylethyl)amino]-2-hydroxy-4-phenylbutyl]amino]-2-hydroxy-1-(phenylmethyl)propyl]carbamic acid, 1-dimethylethyl ester] | 27 |
| CC(C)(C)OC(=O)N[C@@H](Cc1ccccc1)[C@H](O)CN[C@H](Cc1ccccc1)[C@H](O)CNC(=O)OCc1ccccc1 [Compound 189, [2R-[2R*,3R*(2R*,3S*)]]-[3-[[3-[[(1,1-Dimethylethoxy)carbonyl]amino]-2-hydroxy-4-phenylbutyl]amino]-2-hydroxy-4-phenylbutyl]-carbamic acid, phenylmethyl ester] | 23 |
| CC(C)(C)OC(=O)N1CCC[C@H]1C(O)CNCC(O)[C@@H]1CCCN1C(=O)OC(C)(C)C (single isomer, unassigned) [Compound 7] | 8 |
| CC(C)(C)OC(=O)N[C@@H](Cc1ccccc1)[C@H](O)CN[C@@H](Cc1ccccc1)C(O)CNC(=O)OCc1ccccc1 (stereo partly drawn) [Compound 186, [3S-[3R*,2(R*,S*) [2S*,3R*)]-3-[[3-(1,1-Dimethylethoxy)carbonyl]amino]-2-hydroxy-4-phenylbutyl]amino]-2-hydroxy-4-phenylbuty 1]carbamic acid, phenylmethyl ester] | 0 |
| CC(C)(C)OC(=O)N[C@@H](Cc1ccccc1)[C@H](O)CNC[C@@H](O)[C@H](Cc1ccccc1)NC(=O)OC1(C)CCCC1O (stereo partly drawn) [Compound 379, [1S-(1R*,2S*) (trans)]-[Iminobis[2-hydroxy-1-(phenylmethyl)-3,1-propanediyl]]bis[carbamic acid], 1,1-dimethylethyl 2-hydroxy-1-methylcyclopentyl ester] | 98 |
| CC(C)(C)OC(=O)N[C@@H](Cc1ccccc1)[C@H](O)CNC[C@@H](O)[C@H](Cc1ccccc1)NC(=O)[C@@H]1CCCN1C(=O)OCc1ccccc1 [Compound 102, [S-[1R*,2S*(2S*,3R*)[]-N-[[[3-[[3-[[(1,1-Dimethylethoxy)carbonyl]amino]-2-hydroxy-4-phenylbutyl]amino]-2-hydroxy-1-(phenylmethyl)-propyl]-N^2-[phenylmethoxy)carbonyl]-L-prolinamide] | 47 |
| CC(C)(C)OC(=O)N[C@@H](Cc1ccccc1)[C@H](O)CNC[C@@H](O)[C@H](Cc1ccccc1)NC(=O)OCc1nc2ccccc2[nH]1 [Compound 289, [R-(R*,S*)]-[Iminobis[2-hydroxy-1-(phenylmethyl)-3,1-propanediyl)]biscarbamic acid, (1H-benzimidazol-2-yl)methyl 1,1-dimethylethyl ester] | 53 |
